In PMC10458458, “Characterization of Anticancer Effects of the Analogs of DJ4, a Novel Selective Inhibitor of ROCK and MRCK Kinases” (Pharmaceuticals, 2023):

Columns and labels:
Format in all cases: cell-based, human
[1] = test system: BT-549; assay: NCI-60 screen (SRB); settings: BT-549 (Breast Cancer), 10 µM, 48 h; negative = cell death vs time zero
From the text: (§1) The selected active compounds were screened at NCI, as a part of In Vitro Cell Line Screening Project (IVCLSP), for their effect on cell growth in 60 different cancer cell lines. The 60 human cancer cell line panel included leukemia, melanoma, non-small cell lung cancer, colon, central nervous system (CNS), ovarian, renal, prostate, and breast cancer cell lines. The detailed procedure and applications of NCI-60 cell line screening can be found at https://dtp.cancer.gov/discovery_development/nci-60/default.htm (accessed on 9 January 2023). Briefly, cells were plated in 96-well plates and incubated for 24 h. One set of cells was fixed with trichloroacetic acid at time 0 h (Tz), and SRB (sulphorhodamine B) assays were performed to quantify the cells. The remaining set of cells were treated with 10 µM single concentration of each compound and incubated for 48 h (Te) after which the cells were fixed, and the SRB assays were performed. Data are presented as percent growth relative to the control as 100% according to the following calculations:
(§2) When Te >/= Tz. Growth(%)=Te−Tz/C−Tz∗100 and when Te < Tz. (1) Growth(%)=Te−Tz/Tz∗100
(§3) Values between 0–100 indicate cell growth, zero (0) indicates no cell growth, values < 0 indicate cell death.

[2] = test system: MDA-MB-468; assay: NCI-60 screen (SRB); settings: MDA-MB-468 (Breast Cancer), 10 µM, 48 h; negative = cell death vs time zero
From the text: as §1, §2, §3

[3] = test system: SK-MEL-2; assay: NCI-60 screen (SRB); settings: SK-MEL-2 (Melanoma), 10 µM, 48 h; negative = cell death vs time zero
From the text: as §1, §2, §3

[4] = test system: HOP-62; assay: NCI-60 screen (SRB); settings: HOP-62 (Non-Small Cell Lung Cancer), 10 µM, 48 h; negative = cell death vs time zero
From the text: as §1, §2, §3

[5] = test system: OVCAR-3; assay: NCI-60 screen (SRB); settings: OVCAR-3 (Ovarian Cancer), 10 µM, 48 h; negative = cell death vs time zero
From the text: as §1, §2, §3

[6] = test system: MDA-MB-231 breast cancer cells; assay: Caspase 3/7 assay (Muse); settings: MDA-MB-231, 2.5 µM, 48 h (DMSO 6.2)
Method: Figure 8 DJ4 analogs induce cell cycle arrest and apoptotic cell death in MDA-MB-231 breast cancer cells. (A) DJ4 analogs induce cell cycle arrest in MDA-MB-231 breast cancer cells. To study the cell cycle arrest by DJ4 analogs, serum-starved cell cycle-synchronized MDA-MB-231 cells were treated with 2.5 µM concentration of each compound for 24 h and stained with propidium iodide. Treatment with all the analogs, except DJ-Morpholine, induced significant arrest of cells in G2/M phase of cell cycle. (B) Apoptotic cell death by DJ4 analogs was evaluated by measuring caspase 3/7 activation in breast cancer cells. Cells were treated with 2.5 µM concentration of each compound for 48 h and incubated with fluorescent dye. All the compounds except DJ-Morpholine induced significant apoptotic cell death. TEXT PRINTED IN THE PICTURE: (A) DMSO: G1 : 48.40%; S : 44%; G2/M: 7.60% | (A) DJ4: G1 : 27.41%; S : 38.58%; G2/M: 34.01% | (A) DJ-Allyl: G1 : 15.94%; S : 55.51%; G2/M: 28.54% | (A) DJE4: G1 : 19.14%; S : 58.48%; G2/M: 22.37% | (A) DJ110: G1 : 19.16%; S : 38.39%; G2/M: 42.51% | (A) DJ-Morpholine: G1 : 43.16%; S : 51.10%; G2/M: 5.74% | (B) DMSO: Dead 3.10 %; Apoptotic/Dead 4.40 %; 6.2; 1.75 % Apoptotic | (B) DJ4: Dead 5.45 %; Apoptotic/Dead 36.80 %; 52.9; 41.65 % Live; 16.10 % Apoptotic | (B) DJ-Allyl: Dead 3.05 %; Apoptotic/Dead 9.90 %; 18.1; 78.90 % Live; 8.15 % Apoptotic | (B) DJE4: Dead 1.85 %; Apoptotic/Dead 8.15 %; 13.4; 84.75 % Live; 5.25 % Apoptotic | (B) DJ110: Dead 9.05 %; Apoptotic/Dead 56.60 %; 64.4; 26.60 % Live; 7.75 % Apoptotic | (B) DJ-Morpholine: Dead 1.90 %; Apoptotic/Dead 5.00 %; 8.0; 90.10 % Live; 3.00 % Apoptotic DOUBTS OF THE COPYIST ABOUT THIS PICTURE: Panel A: the print is very small and blurred, so 3, 5, 6, 8 and 9 cannot be told apart with certainty in any of its values / A, DMSO: G1 48.40% or 46.40%; S 44% (a decimal part may be hidden); G2/M 7.60% or 7.80% / A, DJ4: G1 27.41%; S 38.58% or 38.98%; G2/M 34.01% uncertain / A, DJ-Allyl: G1 15.94%; S 55.51% or 53.51%; G2/M 28.54% or 26.54% uncertain / A, DJE4: G1 19.14%; S 58.48% or 58.46%; G2/M 22.37% uncertain / A, DJ110: G1 19.16% or 19.18%; S 38.39% or 38.33%; G2/M 42.51% uncertain / A, DJ-Morpholine: G1 43.16%; S 51.10%; G2/M 5.74% uncertain / B, DMSO, Live: the value is hidden by data points (only '.75 %' can be read, perhaps 90.75 or 89.75), so it is left out / B, DJ4, Live: partly hidden by data points, 41.65 is the best reading / B, DJ-Allyl, Live: partly hidden by data points, 78.90 or 76.90 / B, DJE4, Live: partly hidden by data points, 84.75 or 64.75 / B, DJ110, Live: partly hidden by data points, 26.60 or 28.60 / B, DJ-Morpholine, Live: partly hidden by data points, 90.10 or 20.10 / B: the large bold numbers (6.2, 52.9, 18.1, 13.4, 64.4, 8.0) are printed with no measure or unit
To determine whether the active analogs induce apoptotic cell death similar to the DJ4 parent compound, we treated MDA-MB-231 breast cancer cells with 2.5 µM concentration of all the analogs for 48 h (Figure 8). The cells were then analyzed for activation of caspase 3/7 (a marker for apoptotic cell death) and propidium iodide (a marker of cell membrane integrity) using the Muse^TM (EMD Millipore) two color bench-top flow cytometer. […]
To examine whether the selected compounds induce apoptosis, we treated MDA-MB-231 breast cancer cells with 5 µM of each compound. […] The data were quantified by using FlowJo software (version 10).

Structure (SMILES) | percent cell growth [1] [%] | percent cell growth [2] [%] | percent cell growth [3] [%] | percent cell growth [4] [%] | percent cell growth [5] [%] | apoptosis (Q2 + Q3), caspase 3/7 [6] [%]
Cl.O=C1NC(=NCCc2ccccc2)SC1=Cc1c[nH]c2ncccc12 (mixture of isomers) [DJ4-HCl] | 5.3 | −2.1 | −4.6 | −3.0 | 3.4 | 
O=C1N/C(=N\CCc2ccccc2)S/C1=C/c1c[nH]c2ncccc12 [DJ4] | −7.9 | −14.5 | 28.8 | 19.9 | 5.6 | 52.9
O=C1N/C(=N\Cc2ccccc2)S/C1=C/c1c[nH]c2ncccc12 [DJ110] |  |  |  |  |  | 64.4
C=CC/N=C1\NC(=O)/C(=C\c2c[nH]c3ncccc23)S1 [DJ-Allyl] | −29.5 | 1.0 | −8.4 | −10.8 | −7.0 | 18.1
O=C1N/C(=N\CCN2CCOCC2)S/C1=C/c1c[nH]c2ncccc12 [DJ-Morpholine] |  |  |  |  |  | 8
CC/N=C1\NC(=O)/C(=C\c2c[nH]c3ncccc23)S1 [DJE4] | −50.4 | −34.7 | −48.7 | −26.5 | −2.1 | 13.4
